Measured values from US9833497B2, “Human originated EGF domain proteins and use of the same” (CHENGDU SOURCEBIO LIMITED-LIABILITY COMPANY, priority 2013, dated 2017).

Key:
Type in all cases: cell-based
Pseudomonas aeruginosa = assay: MIC against Gram-negative bacteria: Pseudomonas aeruginosa; conditions: 10 h cultivation at 37° C., 5×10^5 CFU/mL; for MIC P. aeruginosa: two-fold serial dilution
Summary of the method: (§1)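 Bacteria grown in LB at 37° C to McFarland 0.5, resuspended and seeded at 5×10^5 CFU/mL in 96-well plates. Purified human EGF-domain proteins two-fold serially diluted, triplicate wells; cultured at 37° C, shaking 175 rpm. MIC = lowest protein concentration with no growth.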

Serratia marcescens = assay: MIC against Gram-negative bacteria: Serratia marcescens; conditions: 10 h cultivation at 37° C., 5×10^5 CFU/mL; for MIC S. marcescens: two-fold serial dilution
Summary of the method: as §1

Aeromonas hydrophila = assay: MIC against Gram-negative bacteria: Aeromonas hydrophila; conditions: 10 h cultivation at 37° C., 5×10^5 CFU/mL; for MIC A. hydrophila: two-fold serial dilution
Summary of the method: as §1

E. coli BL21 = assay: MIC against Gram-negative bacteria: E. coli BL21; conditions: 10 h cultivation at 37° C., 5×10^5 CFU/mL; for MIC E. coli BL21: two-fold serial dilution
Summary of the method: as §1

Proteus vulgaris = assay: MIC against Gram-negative bacteria: Proteus vulgaris; conditions: 10 h cultivation at 37° C., 5×10^5 CFU/mL; for MIC P. vulgaris: two-fold serial dilution
Summary of the method: as §1

Proteus mirabilis = assay: MIC against Gram-negative bacteria: Proteus mirabilis; conditions: 10 h cultivation at 37° C., 5×10^5 CFU/mL; for MIC P. mirabilis: two-fold serial dilution
Summary of the method: as §1

Enterobacter cloacae = assay: MIC against Gram-negative bacteria: Enterobacter cloacae; conditions: 10 h cultivation at 37° C., 5×10^5 CFU/mL; for MIC E. cloacae: two-fold serial dilution
Summary of the method: as §1

Klebsiella pneumonia = assay: MIC against Gram-negative bacteria: Klebsiella pneumonia; conditions: 10 h cultivation at 37° C., 5×10^5 CFU/mL; for MIC K. pneumonia: two-fold serial dilution
Summary of the method: as §1

Moraxella catarrhalis = assay: MIC against Gram-negative bacteria: Moraxella catarrhalis; conditions: 10 h cultivation at 37° C., 5×10^5 CFU/mL; for MIC M. catarrhalis: two-fold serial dilution
Summary of the method: as §1

Citrobacter diversus = assay: MIC against Gram-negative bacteria: Citrobacter diversus; conditions: 10 h cultivation at 37° C., 5×10^5 CFU/mL; for MIC C. diversus: two-fold serial dilution
Summary of the method: as §1

E. coli DH5α = assay: Antibacterial activity: MIC and growth curve against E. coli DH5α in 96-well plate; conditions: minimal inhibitory concentration against E. coli DH5α; 96-well plate, 5×10^5 CFU/mL, 37° C., judged after 8 h
Summary of the method: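 Log-phase DH5α (OD600 about 0.5, 37° C, 185 rpm in LB) was pelleted, resuspended in fresh LB and seeded at 5×10^5 CFU/mL with recombinant protein at 50, 25 and 12.5 μg/mL (two-fold series), in triplicate. Plates were shaken at 175 rpm, 37° C, and OD600 was read every 30 min. MIC was the lowest concentration with no growth.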

Row | Substance | MIC P. aeruginosa (Pseudomonas aeruginosa) [µg/mL] | MIC S. marcescens (Serratia marcescens) [µg/mL] | MIC A. hydrophila (Aeromonas hydrophila) [µg/mL] | MIC E. coli BL21 (E. coli BL21) [µg/mL] | MIC P. vulgaris (Proteus vulgaris) [µg/mL] | MIC P. mirabilis (Proteus mirabilis) [µg/mL] | MIC E. cloacae (Enterobacter cloacae) [µg/mL] | MIC K. pneumonia (Klebsiella pneumonia) [µg/mL] | MIC M. catarrhalis (Moraxella catarrhalis) [µg/mL] | MIC C. diversus (Citrobacter diversus) [µg/mL] | MIC (E. coli DH5α) [µg/mL] | MIC (μg/mL) P. aeruginosa (Pseudomonas aeruginosa) [µg/mL] | MIC (μg/mL) S. marcescens (Serratia marcescens) [µg/mL] | MIC (μg/mL) A. hydrophila (Aeromonas hydrophila) [µg/mL] | MIC (μg/mL) E. coli BL21 (E. coli BL21) [µg/mL] | MIC (μg/mL) P. vulgaris (Proteus vulgaris) [µg/mL] | MIC (μg/mL) P. mirabilis (Proteus mirabilis) [µg/mL] | MIC (μg/mL) E. cloacae (Enterobacter cloacae) [µg/mL] | MIC (μg/mL) K. pneumonia (Klebsiella pneumonia) [µg/mL] | MIC (μg/mL) M. catarrhalis (Moraxella catarrhalis) [µg/mL] | other results
1 | PRT1151 (QFASCENNPCGNGATCVPKSGTDIVCLCPYGRSGPLCT; listed as Homo sapiens) | 25 | 12.5 | 25 | 12.5 | 12.5 | 50 | 25 | 50 | 25 | 12.5 | 25 |  |  |  |  |  |  |  |  |  | 
2 | PRT830 (CALGNGGCQHHCVQLTITRHRCQCRPGFQLQEDGRHC; listed as Homo sapiens) |  |  |  |  |  |  |  |  |  |  | 12.5 | 12.5 | 12.5 | 12.5 | 12.5 | 12.5 | 25 | 25 | 12.5 | 12.5 | MIC (μg/mL) C. diversus (Citrobacter diversus): 25 µg/mL
3 | PRT222 (DVDECAQALHDCRPSQDCHNLPGSYQCTCPDGYRKIGPECV; listed as Homo sapiens) |  |  |  |  |  |  |  |  |  |  | 50 | 12.5 | 25 | 12.5 | 12.5 | 12.5 | 25 | 25 | 12.5 | 12.5 | MIC (μg/mL) C. diversus (Citrobacter diversus): 25 µg/mL
4 | PRT1161 (DIDECASHPCKNGATCIDQPGNYFCQCVPPFKVVDGFSCL; listed as Homo sapiens) | 12.5 | 50 | 25 | 12.5 | 25 | 12.5 | 25 | 12.5 | 25 | 50 | 25 |  |  |  |  |  |  |  |  |  | 
5 | PRT1149 (APSVCQQDVCHNGGTCHAIFLSSGIVSFQCDCPLHFTGRFCE; listed as Homo sapiens) | 50 | 50 | 50 | 25 | 25 | 12.5 | 12.5 | 25 | 50 | 12.5 | 25 |  |  |  |  |  |  |  |  |  | 
